Publication PMC8308836, “Albumin Nanoparticle Formulation for Heart-Targeted Drug Delivery: In Vivo Assessment of Congestive Heart Failure” (Pharmaceuticals, 2021)
Like-named read-outs stand apart in the source and are kept apart here.

Key:
[1] = Pharmacokinetics of milrinone in plasma after i.v. injection; type: in vivo, female Lewis rats; conditions: MRN dose 50 μg/kg, rat
From the text: Amrinone was used as an internal standard.

[2] = system: rat model of congestive heart failure; experiment: Serum safety and toxicity markers (liver and renal function); type: in vivo, female Lewis rats; conditions: CHF rats, i.v. injection; normal range 20–61 U/L
Protocol: Briefly, rats were anesthetized using 5% isoflurane, intubated, and mechanically ventilated at 80 breaths/minute. Via a left thoracotomy (through the fourth intercostal space), the LAD coronary artery was permanently ligated 2 mm from its origin with a 7/0 polypropylene suture (Ethicon Inc., Somerville, NJ, USA). […] About 48 h after ligation of the artery, injections were performed using a 27-G needle. Rats were randomized into five groups: Group 1 (n = 5) received an intravenous injection of 1 c.c. saline (Control). […] Group 4 (n = 5) received 250 μL intravenous injection of empty NPs in the same concentration as Group 1. […] Various endpoint measurements were taken as described in subsequent paragraphs. At 5 days post injection, all rats were killed by euthanasia.
Blood was collected via the jugular vein from the animals using a sterile 23 G/25 mm needle in the Microtainer® serum separator tubes (Becton Dickinson, Franklin Lakes, NJ, USA) for serum separation and in Plasma-EDTA tubes (Becton Dickinson, Franklin Lakes, NJ, USA) for plasma collection. The blood was allowed to clot at room temperature for 30 min and subsequently placed on ice until centrifugation. Serum was separated by low-speed centrifugation at 1500 rpm for 15 min at 4 °C and was frozen at −80 °C until analysis. […]

TNF-α = experiment: Serum cytokine measurement by ELISA: TNF-α; type: in vivo, female Lewis rats; conditions: 1-week post treatment; i.v. injection, CHF rats, mean ± SD (n = 5)
Protocol: (§1) The cytokine analysis for levels of IL-6, IL-10, and tumor necrosis factor-alpha (TNF-α) was performed using commercially available ELISA kits (Abcam) according to the manufacturer’s instructions. Microtiter plates were precoated with a murine monoclonal antibody against the rat cytokine being measured. Standards of the analyte and serum samples were added in triplicate. The absorbance was read at 450 nm within 30 min of stopping the reaction and standard curves were plotted.

IL-6 = experiment: Serum cytokine measurement by ELISA: IL-6; type: in vivo, female Lewis rats; conditions: 1-week post treatment; i.v. injection, CHF rats, mean ± SD (n = 5)
Protocol: as §1

IL-10 = experiment: Serum cytokine measurement by ELISA: IL-10; type: in vivo, female Lewis rats; conditions: 1-week post treatment; i.v. injection, CHF rats, mean ± SD (n = 5)
Protocol: as §1

[3] = 2 h time point; i.v., MRN dose 50 μg/kg, rat, mean ± SD (n = 4)
Protocol: The animals were randomized into three groups in a blinded manner. Group I (n = 6) was intravenously injected with 1 c.c. saline. […] Group III (n = 12) was intravenously injected with 250 μL of MRN Lactate containing 50 μg/kg MRN. Blood was collected from the jugular vein at the following timepoints: 0, 5, 15, 30, 45, 60, 120, and 360 min. The animals were euthanized by isoflurane/CO2. Organ tissues (heart, lungs, liver, and kidneys) were collected, washed, rinsed, and snap-frozen in liquid nitrogen.

[4] = system: rat model of congestive heart failure
Protocol: Briefly, rats were anesthetized using 5% isoflurane, intubated, and mechanically ventilated at 80 breaths/minute. […] About 48 h after ligation of the artery, injections were performed using a 27-G needle. […] Group 3 (n = 8) received 250 μL bolus intravenous injection of 50 μg/kg MRN Lactate [39, 40]. […] Various endpoint measurements were taken as described in subsequent paragraphs.
Echocardiographic examinations were performed under inhaled isoflurane anesthesia (2.5% in oxygen, 500–700 mL/min). Transthoracic echocardiography was performed for each rat as a baseline before the surgery, 48 h post surgery, 60 min post injection, 24 h post injection, 48 h post injection, and 1-week post injection. Echocardiograms were obtained with a commercially available system (Micromaxx P04224; SonoSite, Bothell, WA, USA), equipped with a linear probe 7–13 MHz 25 mm footprint turbo transducer (P06519.11; SonoSite). Briefly, LV end-diastolic diameters (LVEDD) and end-systolic diameters (LVESD) were measured with M-mode tracings between the anterior and posterior walls from the parasternal short-axis view just below the level of the papillary muscles of the mitral valve [13]. The time of end-diastole was defined as time of maximum diameter of the LV in one heart cycle. Accordingly, end-systole was defined as the minimum diameter. Following the American Society of Echocardiology leading-edge method, two images on average were obtained in each view and averaged over three consecutive cycles [41]. The left-ventricular end-diastolic volume (LVEDV) and left-ventricular end-systolic volume (LVESV) were measured using the Teichholz formula [13].

[5] = 24 h post treatment; i.v. injection 50 μg/kg, CHF rats, mean ± SD (n = 3)
Protocol: The surgery was performed in a blinded manner as previously mentioned [22, 38]. Briefly, rats were anesthetized using 5% isoflurane, intubated, and mechanically ventilated at 80 breaths/minute. Via a left thoracotomy (through the fourth intercostal space), the LAD coronary artery was permanently ligated 2 mm from its origin with a 7/0 polypropylene suture (Ethicon Inc., Somerville, NJ, USA). […] About 48 h after ligation of the artery, injections were performed using a 27-G needle. Rats were randomized into five groups: Group 1 (n = 5) received an intravenous injection of 1 c.c. saline (Control). […] Group 3 (n = 8) received 250 μL bolus intravenous injection of 50 μg/kg MRN Lactate [39, 40]. Group 4 (n = 5) received 250 μL intravenous injection of empty NPs in the same concentration as Group 1. […] Blood was collected 24 h post injection for milrinone quantification. […]
The milrinone in plasma samples was quantified using High Performance Liquid Chromatography (HPLC) LCMS-8060 (Shimadzu). […] All samples were reconstituted in 40 µL of mobile phase A and analyzed by LC-MS/MS. […] The gradient started at 95:5 A:B. Samples were quantified using the area under the curve (AUC) and a standard curve.

[6] = i.v. injection group, 48 h Post Ligation (before treatment)
[7] = i.v. injection group, Baseline—Pre-Ligation (before treatment)
[8] = i.v. injection, 50 μg/kg milrinone, 1-week Post Injection
[9] = i.v. injection, 50 μg/kg milrinone, 60 min Post Injection
[10] = i.v. injection, 50 μg/kg milrinone, 24 h Post Injection
[11] = i.v. injection, 50 μg/kg milrinone, 48 h Post Injection

CC(O)C(=O)O.Cc1[nH]c(=O)c(C#N)cc1-c1ccncc1 [MRN Lactate, milrinone lactate]
milrinone concentration in plasma ([1]; 0 min): 334.2 ng/mL | milrinone concentration in plasma ([1]; 5 min, mean ± SD (n = 4)): 203.5 ± 45.3 ng/mL | milrinone concentration in plasma ([1]; 15 min, mean ± SD (n = 4)): 75.4 ± 6.2 ng/mL | milrinone concentration in plasma ([1]; 30 min, mean ± SD (n = 4)): 72.6 ± 12.4 ng/mL | milrinone concentration in plasma ([1]; 45 min, mean ± SD (n = 4)): 22.9 ± 11.2 ng/mL | milrinone concentration in plasma ([1]; 120 min, mean ± SD (n = 4)): 4.1 ± 1.5 ng/mL | milrinone concentration in plasma ([1]; 360 min, mean ± SD (n = 4)): 1.6 ± 0.1 ng/mL | AUC0-t ([1]; non-compartmental): 104.3 ng·h/mL | AUC0-∞ ([1]; non-compartmental): 106.7 ng·h/mL | CL (clearance) ([1]; non-compartmental): 0.47 L/kg/h | MRT (mean residence time) ([1]; non-compartmental): 49.1 min | Vss (apparent volume of distribution at steady state) ([1]; non-compartmental): 0.38 L/kg | Vz (apparent volume of distribution at elimination) ([1]; non-compartmental): 0.73 L/kg | t1/2 (half-life of plasma) ([1]; non-compartmental): 64.7 min | Serum ALT level [2]: within the normal range | Serum TNF-α level (TNF-α): 17.1 ± 2.8 pg/mL | Serum IL-6 level (IL-6): 39.3 ± 2.7 pg/mL | Serum IL-10 level (IL-10): 146.1 ± 24.7 pg/mL | MRN detected in heart [3]: 2.00 ± 1.01 ng/mL | MRN detected in kidneys [3]: 4.80 ± 0.6 ng/mL | MRN detected in liver [3]: 2.44 ± 0.23 ng/mL | Left Ventricular Ejection Fraction (LVEF) [4, 6]: 65.3 ± 2.3% | Left Ventricular Fractional Shortening (LVFS) [4, 6]: 34.3 ± 2.7% | Left Ventricular Ejection Fraction (LVEF) [4, 7]: 88.2 ± 1.8% | Left Ventricular Fractional Shortening (LVFS) [4, 7]: 52.6 ± 2.7% | Left Ventricular Ejection Fraction (LVEF) [4, 8]: 66.1 ± 4.2% | Left Ventricular Fractional Shortening (LVFS) [4, 8]: 30.8 ± 2.8% | Left Ventricular Ejection Fraction (LVEF) [4, 9]: 80.1 ± 3.3 % | Left Ventricular Fractional Shortening (LVFS) [4, 9]: 45.6 ± 3.2 % | Left Ventricular Ejection Fraction (LVEF) [4, 10]: 70.6 ± 3.6% | Left Ventricular Fractional Shortening (LVFS) [4, 10]: 33.6 ± 3.9% | Left Ventricular Ejection Fraction (LVEF) [4, 11]: 64.8 ± 4.3% | Left Ventricular Fractional Shortening (LVFS) [4, 11]: 30.2 ± 3.9% | milrinone detected in plasma [5]: 0.3 ± 0.1 ng/mL
